Series [1] in a line: logP determination by HPLC (formic acid method). The note with it: reversed-phase HPLC column (C18), read-out: logP (HCOOH). The class given is physicochemical. An outline of the steps:
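Reversed-phase C18 HPLC at 55 °C, pH 3.4, with a 4.25 min gradient from 10% to 95% acetonitrile (formic acid-modified water/acetonitrile phases). logP was derived from retention time by linear interpolation between unbranched alkan-2-ones (C3-C16) of known logP.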

The subject of series [2] is green peach aphid (Myzus persicae). Kind of series: Myzus test (spray treatment). The note with it: foliar, read-out: activity (effect in %, aphids killed). The class given is in vivo. The essentials: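 Chinese cabbage leaf discs heavily infested with all stages of the aphid are sprayed with compound formulated in acetone/dimethylformamide with alkylaryl polyglycol ether emulsifier, diluted in emulsifier-containing water. After a set period, kill is scored in %: 100% all aphids dead, 0% none.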

Series [3] deals with greenhouse red spidermite (Tetranychus urticae). Nature of the series: Tetranychus test, OP-resistant (spray treatment). The class given is in vivo. The note with it: application rate of 100 g/ha; sprayed bean leaf discs. The method, then:
Tetranychus Test, OP-Resistant (Spray Treatment)
• Solvents: 78.0 parts by weight of acetone • 1.5 parts by weight of dimethylformamide • Emulsifier: 0.5 part by weight of alkylaryl polyglycol ether
To produce a suitable preparation of active compound, 1 part by weight of active compound is mixed with the stated amounts of solvent and emulsifier, and the concentrate is diluted with emulsifier-containing water to the desired concentration.
Discs of the leaves of beans (Phaseolus vulgaris) which are infested by all stages of the greenhouse red spidermite (Tetranychus urticae) are sprayed with an active compound preparation of the desired concentration.
After the desired period of time, the effect in % is determined. 100% means that all spidermites have been killed; 0% means that none of the spidermites have been killed.

Another series relates to Boophilus microplus. Nature of the series: Boophilus microplus test (injection). The class given is in vivo. The note with it: application rate of 20 μg/animal; injected into the abdomen. The protocol:
Boophilus microplus Test (Injection) • Solvent: Dimethyl sulphoxide To produce a suitable preparation of active compound, 1 part by weight of active compound is mixed with the stated amounts of solvent, and the concentrate is diluted with water to the desired concentration. The solution of active compound is injected into the abdomen (Boophilus microplus), and the animals are transferred into dishes and stored in a climatized room. The activity is checked by examination for deposition of fertile eggs, After the desired period of time, the effect in % is determined. 100% means that none of the ticks has laid fertile eggs.

Setting [4] is: pH 3.4, HPLC on reversed-phase column (C18), acidic range (pH 3.4), 55° C.
[5] abbreviates: application rate of 500 g/ha, sprayed Chinese cabbage leaf discs.
The mark [6] stands for this setting: pH 3.4, values printed in the text of the preparation examples, formic acid method.

Like-named read-outs stand apart in the source and are kept apart here. Bounds are passed on as bounds.

For the compound `Cc1nc(-c2cccnc2)sc1-c1ccn(Cc2ccccn2)n1` [Ex. No. 27], the chromatographic logP in series [1] (setting [4]) was found to be 1.69. In series [2] (setting [5]), the pest or weed control at 500 g/ha is at least 80%. Also, in series [3], the “activity (effect in %, spidermites killed)” value was at least 80%.

Consider `Cc1nc(-c2cccnc2)sc1-c1ccnc(C(F)(F)Cl)n1` [compound 45], for which, in series [1] (setting [4]), the chromatographic logP came out at 2.95. Besides, the pest or weed control at 500 g/ha in series [2] (setting [5]) is at least 80%.

For the compound `c1cnc(-n2nccc2-c2nnc(-c3cccnc3)s2)nc1` [compound 161], the chromatographic logP in series [1] (setting [4]) was 1.13. Besides, in series [2] (setting [5]), the pest or weed control at 500 g/ha was at least 80%.

For the compound `COC(C)(C)CNC(=O)n1ccc(-c2sc(-c3cccnc3)nc2C)n1` [compound 133], the chromatographic logP in series [1] (setting [4]) amounted to 2.53. The pest or weed control at 500 g/ha in series [2] (setting [5]) is at least 80%.

`Cc1nc(-c2cccnc2)sc1-c1ccnc(-c2ccccn2)n1` [compound 29]: in series [1] (setting [4]), the chromatographic logP was 1.47. Besides, the pest or weed control at 500 g/ha in series [2] (setting [5]) was at least 80%.

For `CCCNC(=O)n1ccc(-c2sc(-c3cccnc3)nc2C)n1` [compound 132], the chromatographic logP in series [1] (setting [4]) turned out to be 2.46. Besides, in series [2] (setting [5]), the pest or weed control at 500 g/ha was at least 80%.

With `Cc1nc(-c2cccnc2)sc1-c1ccnc(-c2cccc(Cl)n2)n1` [compound 46], the chromatographic logP in series [1] (setting [4]) was 2.47. For the same compound, the pest or weed control at 500 g/ha in series [2] (setting [5]) is at least 80%.

Take `Cn1nc(-c2cccnc2)cc1C1=NN(c2ncccn2)CCO1` [compound 168]: the chromatographic logP in series [1] (setting [4]) was determined as 0.95. In addition, the pest or weed control at 500 g/ha in series [2] (setting [5]) is at least 80%.

Turning to `Cc1nc(-c2cccnc2)sc1-c1nc(-c2cccnc2)no1` [compound 63], in series [1] (setting [4]), the chromatographic logP is 2.51. Also, the pest or weed control at 500 g/ha in series [2] (setting [5]) is at least 80%.

As to `FC(F)(F)Oc1cccc(-c2nnc(-c3cccnc3)s2)c1` [compound 159], in series [1] (setting [4]), the chromatographic logP came to 3.16. Further, the pest or weed control at 500 g/ha in series [2] (setting [5]) was at least 80%.

Turning to `FC(F)(F)c1cccc(-c2cnc(-c3cccnc3)s2)n1` [Ex. No. 49], in series [1] (setting [4]), the chromatographic logP is 2.81. In addition, the pest or weed control at 500 g/ha in series [2] (setting [5]) is at least 80%. Moreover, in the series on Boophilus microplus, the “activity (effect in %, deposition of fertile eggs)” value was at least 80%.

In the case of `Cc1nc(-c2cccnc2)sc1-c1cccc(-c2ccccc2Cl)n1` [compound 42], in series [1] (setting [4]), the chromatographic logP was 3.97. Further, the pest or weed control at 500 g/ha in series [2] (setting [5]) is at least 80%.

As for `c1cnc(-c2noc(-c3cnc(-c4cccnc4)s3)n2)nc1` [compound 70], in series [1] (setting [4]), the chromatographic logP worked out at 1.4. Moreover, in series [2] (setting [5]), the pest or weed control at 500 g/ha was at least 80%.

Take `Clc1ccc(-c2cnc(-c3cccnc3)s2)cc1` [compound 13]: the chromatographic logP in series [1] (setting [4]) was determined as 3.23. Also, the pest or weed control at 500 g/ha in series [2] (setting [5]) was at least 80%.

Consider `Cc1nc(-c2cccnc2)sc1-c1ccnc(-c2ncccc2Cl)n1` [compound 41], for which the chromatographic logP in series [1] (setting [4]) amounted to 2.03. The pest or weed control at 500 g/ha in series [2] (setting [5]) was at least 80%.

For `COCc1nccc(-c2sc(-c3cccnc3)nc2C)n1` [compound 61], the chromatographic logP in series [1] (setting [4]) amounted to 1.57. Further, in series [2] (setting [5]), the pest or weed control at 500 g/ha is at least 80%.

In the case of `Cc1nc(-c2cccnc2)sc1-c1cccc(-c2ncccn2)n1` [Preparation Example 6, 2-[6-(4-Methyl-2-pyridin-3-ylthiazol-5-yl)pyridin-2-yl]pyrimidine], the results for the chromatographic logP in series [1] (setting [4]) and in series [1] (setting [6]) were 1.73 and 1.75, respectively. Besides, the pest or weed control at 500 g/ha in series [2] (in Brassica rapa) is at least 80%.

`Cc1nc(-c2cccnc2)sc1-c1ccn(C(=O)NC(C)C)n1` [compound 103]: the chromatographic logP in series [1] (setting [4]) was determined as 2.55. Moreover, the pest or weed control at 500 g/ha in series [2] (setting [5]) is at least 80%.

Take `c1cncc(-c2nnc(-c3cccnc3)s2)c1` [compound 163]: the chromatographic logP in series [1] (setting [4]) is 1.07. Also, the pest or weed control at 500 g/ha in series [2] (setting [5]) was at least 80%.

With `Cc1noc(Cn2ccc(-c3sc(-c4cccnc4)nc3C)n2)n1` [compound 145], the chromatographic logP in series [1] (setting [4]) was determined as 1.71. Moreover, in series [2] (setting [5]), the pest or weed control at 500 g/ha is at least 80%.

On to `Cc1nc(-c2cccnc2)sc1-c1cccc(C2OCCO2)c1` [compound 25], for which the chromatographic logP in series [1] (setting [4]) was determined as 2.39. In addition, the pest or weed control at 500 g/ha in series [2] (setting [5]) is at least 80%.

For `Cc1nc(-c2cccnc2)sc1-n1ccc(-c2ccccc2)n1` [compound 28], in series [1] (setting [4]), the chromatographic logP was found to be 3.08. For the same compound, the pest or weed control at 500 g/ha in series [2] (setting [5]) is at least 80%.

In the case of `Cc1nc(-c2cccnc2)sc1-c1ccn(C(=S)NC2CC2)n1` [compound 104], the chromatographic logP in series [1] (setting [4]) stood at 3.23. For the same compound, the pest or weed control at 500 g/ha in series [2] (setting [5]) was at least 80%.

As for `Cc1nc(-c2cccnc2)sc1-c1ccn(-c2nnc(C(F)F)s2)n1` [compound 85], in series [1] (setting [4]), the chromatographic logP was 2.8. For the same compound, the pest or weed control at 500 g/ha in series [2] (setting [5]) is at least 80%.

Turning to `Cc1cc(-c2nccc(-c3sc(-c4cccnc4)nc3C)n2)n(C)n1` [compound 44], the chromatographic logP in series [1] (setting [4]) was found to be 2.4. For the same compound, in series [2] (setting [5]), the pest or weed control at 500 g/ha was at least 80%.

Consider `Cc1nc(-c2cccnc2)sc1-c1ccnc(-c2ncccn2)n1` [Preparation Example 1, 4-(4-Methyl-2-pyridin-3-ylthiazol-5-yl)-[2,2′]bipyrimidinyl], for which the chromatographic logP in series [1] (setting [4]) and in series [1] (setting [6]) was 1.17 throughout. Moreover, in series [2] (in Brassica rapa), the pest or weed control at 500 g/ha is at least 80%.

For `COc1cc(OC)nc(-n2ccc(-c3sc(-c4cccnc4)nc3C)n2)n1` [compound 81], in series [1] (setting [4]), the chromatographic logP came out at 2.8. Also, in series [2] (setting [5]), the pest or weed control at 500 g/ha is at least 80%.

Regarding `CSc1cnn(-c2sc(-c3cccnc3)nc2C)c1` [compound 33], in series [1] (setting [4]), the chromatographic logP was 2.21. Besides, the pest or weed control at 500 g/ha in series [2] (setting [5]) is at least 80%.

On to `Cn1nc(-c2cccnc2)cc1-c1ccn(-c2ncccn2)n1` [Preparation Example 11], for which the chromatographic logP in series [1] (setting [4]) and in series [1] (setting [6]) was 1 in each case. In addition, the pest or weed control at 500 g/ha in series [2] (setting [5]) was at least 80%.

Regarding `Cc1nc(-c2cccnc2)sc1-c1ccn(-c2nnc(C3CCC3)s2)n1` [compound 106], in series [1] (setting [4]), the chromatographic logP was found to be 3.42. In addition, the pest or weed control at 500 g/ha in series [2] (setting [5]) was at least 80%.

As for `Cc1nc(-c2cccnc2)sc1-n1ccc(-c2cccs2)n1` [compound 34], in series [1] (setting [4]), the chromatographic logP came out at 2.84. The pest or weed control at 500 g/ha in series [2] (setting [5]) was at least 80%.

With `c1cnc(-c2cccc(-c3cnc(-c4cccnc4)s3)n2)nc1` [Preparation Example 5, 2-[6-(2-Pyridin-3-ylthiazol-5-yl)pyridin-2-yl]pyrimidine], the chromatographic logP in series [1] (setting [4]) and in series [1] (setting [6]) was 1.53 each time. Also, in series [2] (setting [5]), the pest or weed control at 500 g/ha was at least 80%.

On to `c1cncc(-c2ncc(-c3cccc(-n4ccnn4)n3)s2)c1` [compound 149], for which the chromatographic logP in series [1] (setting [4]) worked out at 1.85. In series [2] (setting [5]), the pest or weed control at 500 g/ha is at least 80%.

`Cc1nc(-c2cccnc2)sc1-c1ccnn1-c1ncccn1` [compound 26]: the chromatographic logP in series [1] (setting [4]) amounted to 1.47. In addition, in series [2] (setting [5]), the pest or weed control at 500 g/ha is at least 80%.

(Values after patent US9451775B2, “Heterocyclic compounds as pesticides” (Bayer Intellectual Property GmbH, priority 2008, dated 2016).)
